# Test results taken from PubChem BioAssay AID493250 (Broad Institute, 2011).
# Active and inactive are the calls of the source.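 The calls were made as follows: active = signal decrease with fitted half-maximal dose at or below ten times the highest valid tested dose; inconclusive = poor fit, or flat fit at 30 to 70% inhibition; inactive = the rest.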
# Biological target: Zinc finger protein mex-5 (Caenorhabditis elegans) (UniProt Q9XUB2)
# Test: inhibitors of MEX-5 RNA binding, dose response, biochemical, fluorescence polarization, C. elegans, cherry-picked, round 3 (AID 493250)
# Conditions: purified MEX-5-MBP, FITC-TCR2 RNA fluorescence polarization
# Zinc finger protein mex-5 (Caenorhabditis elegans), sequence (Q9XUB2 whole entry, looked up): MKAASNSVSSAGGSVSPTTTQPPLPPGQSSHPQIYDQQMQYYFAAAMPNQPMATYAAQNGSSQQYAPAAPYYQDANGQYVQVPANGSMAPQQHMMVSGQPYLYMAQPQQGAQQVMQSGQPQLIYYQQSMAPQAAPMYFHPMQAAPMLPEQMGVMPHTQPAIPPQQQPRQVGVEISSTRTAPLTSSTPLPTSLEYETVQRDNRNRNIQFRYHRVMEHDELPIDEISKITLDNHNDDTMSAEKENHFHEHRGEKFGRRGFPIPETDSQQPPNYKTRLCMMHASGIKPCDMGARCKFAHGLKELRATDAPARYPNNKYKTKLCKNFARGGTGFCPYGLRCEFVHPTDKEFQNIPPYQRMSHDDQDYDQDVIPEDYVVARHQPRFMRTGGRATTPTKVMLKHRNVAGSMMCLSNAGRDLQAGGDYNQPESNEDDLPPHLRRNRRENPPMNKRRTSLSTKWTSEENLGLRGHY
row,SMILES,AC50
1,C=CCn1c(=O)[nH]c2nc3cc(N=CN(C)C)c(C)cc3nc2c1=O,5.73 µM
2,CCOCCCn1c(=N)c(S(=O)(=O)c2ccccc2)cc2c(=O)n3cc(C)ccc3nc21,10.3 µM
3,CCN(CC)c1ccc(/C=C(/C#N)c2nc3ccc(C)cc3[nH]2)c(OC(C)C)c1,1.16 µM
4,Nc1nc(Cl)nc2ccc(Br)cc12,> 10 µM (inactive)

# Same assay, conditions: purified MEX-5-MBP, FITC-TCR2 RNA fluorescence polarization; at 10 µM (top of the series)
row,SMILES,"activity change, negative = inhibition"
1,Cc1cc(C)c[n+](-c2nc([O-])sc2C=O)c1,inactive
2,CC(C)=CCc1c(O)cc(O)c2c(=O)c(O[C@@H]3O[C@@H](C)[C@H](O)[C@@H](O)[C@H]3O)c(-c3ccc(O)cc3)oc12,inactive
3,COc1ccccc1C(=O)NNC(=O)c1csc(N2CCOCC2)n1,inactive
4,Cc1c(N=Cc2cc3c(cc2[N+](=O)[O-])OCO3)cccc1[N+](=O)[O-],inactive
5,Cc1cc(=O)oc(C)c1C(=O)Nc1c(C)n(C)n(-c2ccccc2)c1=O,inactive
6,CCc1ccc(S(=O)(=O)Nc2ccc(O)c3c(=O)cc(-c4ccccc4Cl)oc23)cc1,inactive
7,CCCc1nc2ccccc2c(=O)n1/N=C/c1ccc(O)c(O)c1,inactive
8,CSc1ccc(C(c2c(C(=O)O)[nH]c3ccccc23)c2c(C(=O)O)[nH]c3ccccc23)cc1,inactive
9,CCOC(=O)c1cnc(SCC(=O)NNC(=O)c2ccco2)nc1N,inactive
10,CC(=O)Nc1ccc(N=NC2C(=O)N(C(N)=S)N=C2C)cc1 (configuration not stated),inactive
11,Cc1ccc2cc(C#N)c(N3CCCN(C(=O)C4CCCO4)CC3)nc2c1C (configuration not stated),inactive
12,CN(C)CC(O)COc1ccc(C(C)(C)c2ccc(OCC(O)CN(C)C)cc2)cc1 (configuration not stated),inactive
13,CC(=O)CSc1ncnc2nc[nH]c12,inactive
14,CN(N)c1ccc2c(C(F)(F)F)cc(C(F)(F)F)nc2n1,inactive
15,CCN(CC)c1ccc(N=Cc2c(O)n(-c3ccccc3C)c(=O)[nH]c2=O)cc1,inactive
16,COc1ccc(-c2cn[nH]c2-c2ccc(OCC(=O)NN)cc2O)cc1,inactive
17,C/C=C(\C)CN1CCC(n2nccc2NC(=O)CCCc2ccccc2)CC1,inactive
18,COc1ccccc1-c1cn[nH]c1-c1ccc(O)cc1O,inactive
19,O=C(O)COc1ccc(Br)cc1C(c1c(C(=O)O)[nH]c2ccccc12)c1c(C(=O)O)[nH]c2ccccc12,inactive
20,COc1cc2c(cc1OC)-c1c(OC)c(OC)cc3c1C(C2)N(C)CC3 (configuration not stated),inactive
21,CC1=Nc2ccccc2/C1=C\c1nc(-c2ccccc2)oc1O,inactive
22,Brc1ccc(-c2cn3nc4c(nc3n2)CCCC4)cc1,inactive
23,Cc1cccc(-n2c(N)c(-c3nc4ccccc4n3C)c3nc4ccccc4nc32)c1,inactive
24,CC1=C(C(=O)OCc2ccccc2)C(c2ccc(N(C)C)cc2)NC(=O)N1 (configuration not stated),inactive
25,COc1cc(/C=C2/C(C)=C(C#N)c3nc(N)c(C#N)c(C)c32)ccc1OCC(=O)O,inactive
26,CCN(CC)c1ccc(/C=N/N2CCN(c3ccccc3OC)CC2)cc1,inactive
27,CCCCN(C(=O)c1ccc(C)o1)c1c(N)n(CCCC)c(=O)[nH]c1=O,inactive
28,Cc1nc2cc(C(=O)O)ccc2n1-c1ccc(F)cc1F,inactive
